In ChEMBL document CHEMBL1201862, “PubChem BioAssay data set” (2004):
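Cultured in 96-well plates, cells were exposed to test compound for 48 hours across five concentrations. GI50 = concentration required for 50% inhibition of growth.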 Active and inactive are the calls of the source. Cut-off read from the data, not from the text of the source: active = GI50 up to about 1.1 µM and inactive = higher.

Experiments:
Test in all cases: growth of human tumour cells (NCI), 48 h
CCRF-CEM = tested on: CCRF-CEM
SNB-75 = tested on: SNB-75
U-251 = tested on: U-251
A549 = tested on: A549
HL-60 = tested on: HL-60
Malme-3M = tested on: Malme-3M
UACC-62 = tested on: UACC-62
HT-29 = tested on: HT-29
NCI-H23 = tested on: NCI-H23
SK-MEL-5 = tested on: SK-MEL-5
NCI-H460 = tested on: NCI-H460
LOX IMVI = tested on: LOX IMVI
LXFL 529 = tested on: LXFL 529
K562 = tested on: K562
SK-MEL-28 = tested on: SK-MEL-28
MDA-N = tested on: MDA-N
NCI/ADR-RES = tested on: NCI/ADR-RES
MDA-MB-231 = tested on: MDA-MB-231
MCF7 = tested on: MCF7
DU-145 = tested on: DU-145

SMILES | GI50 (CCRF-CEM) | GI50 (SNB-75) | GI50 (U-251) | GI50 (A549) | GI50 (HL-60) | GI50 (Malme-3M) | GI50 (UACC-62) | GI50 (HT-29) | GI50 (NCI-H23) | GI50 (SK-MEL-5) | GI50 (NCI-H460) | GI50 (LOX IMVI) | GI50 (LXFL 529) | GI50 (K562) | GI50 (SK-MEL-28) | GI50 (MDA-N) | GI50 (NCI/ADR-RES) | GI50 (MDA-MB-231) | GI50 (MCF7) | GI50 (DU-145)
COC(=O)C(C(=O)C(=O)Nc1ccc(C)cc1C)c1nc2ccc([N+](=O)[O-])cc2nc1O (stereo not given) | 71.4 µM (inactive) | > 100 µM (inactive) | > 100 µM (inactive) | > 100 µM (inactive) | 34.8 µM (inactive) | > 100 µM (inactive) | > 100 µM (inactive) | > 100 µM (inactive) | > 100 µM (inactive) | > 100 µM (inactive) | > 100 µM (inactive) | > 100 µM (inactive) | 56.8 µM (inactive) | 78.7 µM (inactive) | > 100 µM (inactive) | – | – | – | – | –
CC(=O)OCC1OC(n2c(=O)[nH]c(=O)c3nn[nH]c32)C(OC(C)=O)C(OC(C)=O)C1OC(C)=O (stereo not given) | > 100 µM (inactive) | 2.63 µM (inactive) | > 100 µM (inactive) | > 100 µM (inactive) | > 100 µM (inactive) | > 100 µM (inactive) | > 100 µM (inactive) | > 100 µM (inactive) | > 100 µM (inactive) | > 100 µM (inactive) | > 100 µM (inactive) | > 100 µM (inactive) | > 100 µM (inactive) | > 100 µM (inactive) | > 100 µM (inactive) | – | – | – | – | –
CNC(=O)NCNC(=O)NC | > 100 µM (inactive) | > 100 µM (inactive) | > 100 µM (inactive) | > 100 µM (inactive) | > 100 µM (inactive) | > 100 µM (inactive) | > 100 µM (inactive) | > 100 µM (inactive) | > 100 µM (inactive) | > 100 µM (inactive) | > 100 µM (inactive) | > 100 µM (inactive) | > 100 µM (inactive) | > 100 µM (inactive) | > 100 µM (inactive) | – | – | – | – | –
COc1cc2ccnc3c2c(c1OC)CC1CC(O)C(OC)CC31 (stereo not given) | 78.3 µM (inactive) | > 100 µM (inactive) | 38 µM (inactive) | 61.8 µM (inactive) | 28.6 µM (inactive) | > 100 µM (inactive) | 38.5 µM (inactive) | 46.5 µM (inactive) | 47.5 µM (inactive) | 38.4 µM (inactive) | 35.6 µM (inactive) | 31.7 µM (inactive) | 36.6 µM (inactive) | 47.2 µM (inactive) | 22.7 µM (inactive) | – | – | – | – | –
Cc1ccc(C(=O)C(C)N)cc1 (stereo not given) | > 100 µM (inactive) | > 100 µM (inactive) | > 100 µM (inactive) | > 100 µM (inactive) | > 100 µM (inactive) | > 100 µM (inactive) | > 100 µM (inactive) | > 100 µM (inactive) | > 100 µM (inactive) | > 100 µM (inactive) | > 100 µM (inactive) | > 100 µM (inactive) | > 100 µM (inactive) | > 100 µM (inactive) | > 100 µM (inactive) | – | – | – | – | –
Cc1nc(N)nc(N)c1CCCCc1ccc(N)cc1 | 3.01 µM (inactive) | 11.9 µM (inactive) | 3.03 µM (inactive) | 0.668 µM (active) | 3.07 µM (inactive) | 1.96 µM (inactive) | 1.86 µM (inactive) | 0.729 µM (active) | 4.37 µM (inactive) | 3.43 µM (inactive) | 0.959 µM (active) | 1.09 µM (active) | 6.46 µM (inactive) | 0.321 µM (active) | 10.1 µM (inactive) | – | – | – | – | –
O=C(c1ccco1)N(C(=S)N1CCN(c2ccccc2)CC1)c1ccccc1 | > 100 µM (inactive) | > 100 µM (inactive) | > 100 µM (inactive) | > 100 µM (inactive) | > 100 µM (inactive) | > 100 µM (inactive) | > 100 µM (inactive) | > 100 µM (inactive) | > 100 µM (inactive) | > 100 µM (inactive) | > 100 µM (inactive) | > 100 µM (inactive) | > 100 µM (inactive) | > 100 µM (inactive) | > 100 µM (inactive) | – | – | – | – | –
COc1cc(C2(C)SCCCS2)cc(OC)c1OC | > 100 µM (inactive) | > 100 µM (inactive) | > 100 µM (inactive) | > 100 µM (inactive) | > 100 µM (inactive) | > 100 µM (inactive) | > 100 µM (inactive) | > 100 µM (inactive) | > 100 µM (inactive) | > 100 µM (inactive) | > 100 µM (inactive) | > 100 µM (inactive) | > 100 µM (inactive) | > 100 µM (inactive) | > 100 µM (inactive) | – | – | – | – | –
Cc1cc(N(CCC#N)CCC#N)ccc1/C=C1\N=C(c2cc([N+](=O)[O-])ccc2Cl)N(NC(=O)c2ccc(/N=C\c3ccc(N(CCC#N)S(C)(=O)=O)cc3C)cc2)C1=O | 76.4 µM (inactive) | > 100 µM (inactive) | > 100 µM (inactive) | > 100 µM (inactive) | 61.4 µM (inactive) | > 100 µM (inactive) | 24.2 µM (inactive) | 54.5 µM (inactive) | > 100 µM (inactive) | 38.2 µM (inactive) | > 100 µM (inactive) | > 100 µM (inactive) | 64.3 µM (inactive) | 31.9 µM (inactive) | > 100 µM (inactive) | – | – | – | – | –
O=C(/C=C/c1ccc(OCCSCCCCCCCCCCSCCOc2ccc(/C=C/C(=O)c3ccc(Cl)cc3)cc2)cc1)c1ccc(Cl)cc1 | > 100 µM (inactive) | 30.8 µM (inactive) | 65.8 µM (inactive) | > 100 µM (inactive) | > 100 µM (inactive) | > 100 µM (inactive) | > 80.9 µM (inactive) | > 100 µM (inactive) | > 94.6 µM (inactive) | > 100 µM (inactive) | > 100 µM (inactive) | > 100 µM (inactive) | > 100 µM (inactive) | > 100 µM (inactive) | > 100 µM (inactive) | > 100 µM (inactive) | > 100 µM (inactive) | > 100 µM (inactive) | > 100 µM (inactive) | > 100 µM (inactive)
CC1(C)O/C(=C\c2ccccc2)C(=O)/C(=C/c2ccccc2)O1 | 15.8 µM (inactive) | 31.6 µM (inactive) | 28.4 µM (inactive) | 23.3 µM (inactive) | 9.25 µM (inactive) | 38 µM (inactive) | 25.8 µM (inactive) | 29.4 µM (inactive) | 20 µM (inactive) | 14.4 µM (inactive) | 59.6 µM (inactive) | 28.6 µM (inactive) | 20.4 µM (inactive) | 27 µM (inactive) | 50.4 µM (inactive) | – | – | – | – | –
COC(=O)C1CC(C(=O)OC)c2nc3cc(C)ccc3nc21 (stereo not given) | > 100 µM (inactive) | > 100 µM (inactive) | > 100 µM (inactive) | > 100 µM (inactive) | > 100 µM (inactive) | > 100 µM (inactive) | > 100 µM (inactive) | 62.7 µM (inactive) | > 100 µM (inactive) | > 100 µM (inactive) | > 100 µM (inactive) | > 100 µM (inactive) | > 100 µM (inactive) | > 100 µM (inactive) | > 100 µM (inactive) | – | – | – | – | –
CN(C)NC(=O)/C(=C/c1ccc(Cl)cc1)NC(=O)c1ccccc1 | > 100 µM (inactive) | 78 µM (inactive) | > 100 µM (inactive) | > 100 µM (inactive) | 34.4 µM (inactive) | > 100 µM (inactive) | > 100 µM (inactive) | > 100 µM (inactive) | > 100 µM (inactive) | > 100 µM (inactive) | 69.3 µM (inactive) | 48.3 µM (inactive) | > 100 µM (inactive) | 85.3 µM (inactive) | > 100 µM (inactive) | – | – | – | – | –
NCCCC(N/C=C1/N=C(c2ccccc2)OC1=O)C(=O)O (stereo not given) | 37.8 µM (inactive) | > 100 µM (inactive) | > 100 µM (inactive) | > 100 µM (inactive) | 63.4 µM (inactive) | > 100 µM (inactive) | > 100 µM (inactive) | > 100 µM (inactive) | > 100 µM (inactive) | > 100 µM (inactive) | > 100 µM (inactive) | > 100 µM (inactive) | 96.8 µM (inactive) | 34.4 µM (inactive) | > 100 µM (inactive) | – | – | – | – | –
COC(=O)C1=Cc2cc(OC)c(OC)cc2[C@H](c2ccc(OC)c(OC)c2)C1C(=O)OC (stereo not given in full) | > 100 µM (inactive) | > 100 µM (inactive) | > 100 µM (inactive) | > 100 µM (inactive) | > 100 µM (inactive) | > 100 µM (inactive) | 98.9 µM (inactive) | 75.9 µM (inactive) | > 100 µM (inactive) | > 100 µM (inactive) | > 100 µM (inactive) | > 100 µM (inactive) | > 100 µM (inactive) | > 100 µM (inactive) | > 100 µM (inactive) | – | – | – | – | –
Nc1nc(SCc2ccccc2[N+](=O)[O-])c2[nH]cnc2n1 | > 44.8 µM (inactive) | > 42.5 µM (inactive) | > 61.9 µM (inactive) | > 76.6 µM (inactive) | > 53.6 µM (inactive) | > 30.6 µM (inactive) | 37.3 µM (inactive) | 32.8 µM (inactive) | > 58.1 µM (inactive) | 18.9 µM (inactive) | > 40.2 µM (inactive) | > 53.3 µM (inactive) | > 100 µM (inactive) | > 55.2 µM (inactive) | > 61.1 µM (inactive) | 27.9 µM (inactive) | 26.7 µM (inactive) | 39.4 µM (inactive) | 51.5 µM (inactive) | 44.7 µM (inactive)
CCCOc1ccc(/C=C/c2cc(OC)c(OC)c(OC)c2)cc1 | 0.324 µM (active) | 0.266 µM (active) | 0.384 µM (active) | 0.452 µM (active) | 0.155 µM (active) | 0.21 µM (active) | 0.215 µM (active) | 0.272 µM (active) | 0.23 µM (active) | 0.144 µM (active) | 0.439 µM (active) | 0.445 µM (active) | 0.558 µM (active) | 0.0733 µM (active) | 8.75 µM (inactive) | – | – | – | – | –
